{"source": "patent US8962615B2", "about": "“Cell migration modulating compounds” (University of Dundee, priority 2005, dated 2015)", "system": "human skin fibroblasts", "assay": "migration of human skin fibroblasts in the 3D collagen gel assay", "assay_type": "cell-based", "conditions": "relative to control fibroblasts in the absence of test compound, FIG. 3", "source_text": "The results were plotted and are shown on the graph depicted in FIG. 3 in which compound (IV) is referred to as BDP 1. The data are expressed as fold-stimulation of migration relative to control fibroblasts in the absence of test compound. The range of base-line (control) migration is indicated by the horizontal dotted lines.", "data": [{"smiles": "COC(=O)CC1Nc2c(cccc2OCCC(C)C)CN(C)C1=O", "note": "(stereo not shown) [Compound (IV)]", "values": [{"measurement": "fold-stimulation of migration relative to control fibroblasts", "value": "stimulated target cell migration with a bell-shaped dose-response similar in potency and profile to that of IGDS"}]}]}
